Source: PMC8289695 (Cell Reports, 2021)
Like-named read-outs stand apart in the source and are kept apart here.

Assays:
SARS-CoV-2 [1] = format: cell-based, strain USA_WA1/2020; conditions: VPS34-IN1 5 μM, orlistat 500 μM, triacsin C 5 μM, TOFA 50 μM, 2-bromopalmitate 50 μM, A922500 30 μM, remdesivir 1 μM
SARS-CoV-2 [2] = format: cell-based, strain USA_WA1/2020
SARS-CoV-2 [3] = test: microbe, parasite or virus in culture; format: cell-based, strain USA_WA1/2020
Vero E6 cells = conditions: concentrations below 16.67 μM of 10-point dose response
SARS-CoV-2 [4] = test: microbe, parasite or virus in culture; format: cell-based, strain USA_WA1/2020; conditions: Severe acute respiratory syndrome coronavirus 2, Calu-3, read-out: IC50, infectious virus production (plaque assay)
SARS-CoV-2 [5] = format: cell-based, strain USA_WA1/2020; remark: listed apart in the source
VPS34 = VPS34 (Homo sapiens, UniProt Q8NEB9); format: cell-based; conditions: Huh7 cells, 24 h treatment; VPS34-IN1 2 μM, PIK-III 5 μM, SAR405 5 μM, Compound 19 5 μM, Orlistat 200 μM
[6] = read-out: IC50, infectious virus production (focus forming assay)

VPS34, sequence (Q8NEB9 whole entry): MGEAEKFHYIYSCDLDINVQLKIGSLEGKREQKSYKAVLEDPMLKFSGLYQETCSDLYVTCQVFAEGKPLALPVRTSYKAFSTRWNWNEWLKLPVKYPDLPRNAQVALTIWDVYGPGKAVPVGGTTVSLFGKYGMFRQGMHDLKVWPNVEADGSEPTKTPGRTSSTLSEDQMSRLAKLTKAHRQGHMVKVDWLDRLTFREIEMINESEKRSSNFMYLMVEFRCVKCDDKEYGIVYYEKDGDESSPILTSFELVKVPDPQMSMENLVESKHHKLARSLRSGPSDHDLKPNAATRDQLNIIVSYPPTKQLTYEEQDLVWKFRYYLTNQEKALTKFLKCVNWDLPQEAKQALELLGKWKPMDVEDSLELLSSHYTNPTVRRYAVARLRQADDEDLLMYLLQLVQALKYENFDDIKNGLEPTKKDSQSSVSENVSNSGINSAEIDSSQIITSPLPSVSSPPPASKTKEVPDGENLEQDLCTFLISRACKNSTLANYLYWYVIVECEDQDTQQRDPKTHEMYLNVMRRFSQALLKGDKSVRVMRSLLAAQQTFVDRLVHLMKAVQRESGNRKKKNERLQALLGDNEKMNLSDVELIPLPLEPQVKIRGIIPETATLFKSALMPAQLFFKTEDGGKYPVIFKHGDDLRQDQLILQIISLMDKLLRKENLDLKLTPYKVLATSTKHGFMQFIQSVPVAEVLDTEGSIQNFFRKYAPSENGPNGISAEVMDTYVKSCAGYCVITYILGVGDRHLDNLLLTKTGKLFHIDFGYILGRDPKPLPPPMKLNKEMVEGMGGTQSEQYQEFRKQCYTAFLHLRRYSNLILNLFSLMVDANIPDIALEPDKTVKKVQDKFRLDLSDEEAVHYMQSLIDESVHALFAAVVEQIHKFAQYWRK

Structure (SMILES) | dsRNA and SARS-CoV-2 N distribution (replication centers) (SARS-CoV-2 [1]) | viral RNA levels (SARS-CoV-2 [2]) | IC50 (SARS-CoV-2 [3]; [6]) | IC50 (SARS-CoV-2 [4]) | other results
CCCCCCCCCCCCCCC(Br)C(=O)O (stereo not shown) [2-bromopalmitate] | fewer but larger foci positive for both markers | reduced RNA levels at both MOI 0.01 and 1 | 23 µM | – | concentrations at which infectious virus production was inhibited (SARS-CoV-2 [3]): greater than 10 μM
O=C(Nc1ccccc1)Nc1ccc(-c2ccc(C(=O)[C@@H]3CCC[C@H]3C(=O)O)cc2)cc1 [A922500] | loss of these distinct puncta and dispersion of dsRNA and SARS-CoV-2 N | – | 4.02 µM | – | –
C=C1C(=O)OC(CCCCCCCC)C1C(=O)O (stereo not shown) [C75] | – | – | 22.8 µM | – | –
Nc1ncc(-c2ccnc(Nc3ccncc3)n2)c(CC2CC2)n1 [PIK-III] | – | – | – | 120 nM | toxicity at the remaining concentrations (resistance 1-20 hpi) (Vero E6 cells): no toxicity was observed
C[C@@H]1COCCN1c1cc(=O)n2c(n1)N(Cc1cncc(Cl)c1)[C@H](C(F)(F)F)CC2 [SAR405] | – | – | – | – | IC50 (SARS-CoV-2 [3]; Severe acute respiratory syndrome coronavirus 2, Calu-3, read-out: IC50, infectious virus production (focus forming assay)): 0.376 µM
CCCCCCCCCCCCCCOc1ccc(C(=O)O)o1 [TOFA] | loss of these distinct puncta and dispersion of dsRNA and SARS-CoV-2 N | – | 1.34 µM | – | –
CC(C)(O)CNc1ncc(-c2ccnc(Nc3ccnc(Cl)c3)n2)c(CC2CC2)n1 [VPS34-IN1] | loss of these distinct puncta and dispersion of dsRNA and SARS-CoV-2 N | reduced RNA levels at both MOI 0.01 and 1 | – | 550 nM | toxicity at the remaining concentrations (resistance 1-20 hpi) (Vero E6 cells): no toxicity was observed
CCOC(=O)[C@@]1(CCCCCCOc2ccc(Cl)cc2)CO1 [etomoxir] | – | – | – | – | inhibition of SARS-CoV-2 (focus forming assay) (SARS-CoV-2 [3]): Neither compound showed any inhibition
CCCCCCCCCCC[C@@H](C[C@@H]1OC(=O)[C@H]1CCCCCC)OC(=O)[C@H](CC(C)C)NC=O [orlistat] | loss of these distinct puncta and dispersion of dsRNA and SARS-CoV-2 N | reduced RNA levels at both MOI 0.01 and 1 | – | 21200 nM | inhibition of viral cytopathic effects at highest concentration (SARS-CoV-2 [5]): complete inhibition was not achieved; effect on GFP-2xFYVE localization to endosomes (puncta) (VPS34): did not affect GFP-2xFYVE localization
CCC(CC)COC(=O)[C@H](C)N[P@](=O)(OC[C@H]1O[C@@](C#N)(c2ccc3c(N)ncnn23)[C@H](O)[C@@H]1O)Oc1ccccc1 [remdesivir] | distribution of N and dsRNA similar to the DMSO control | – | – | – | RNA synthesis at earlier time points (4 and 10 hpi) (SARS-CoV-2 [2]): inhibited RNA synthesis at earlier time points as well
CCC/C=C/C/C=C/C=C/C=N/NN=O [triacsin C] | fewer but larger foci positive for both markers | reduced RNA levels at both MOI 0.01 and 1 | – | 40 nM | –
COc1ccc(CN2CCNCC2)c(OC)c1OC [trimetazidine] | – | – | – | – | inhibition of SARS-CoV-2 (focus forming assay) (SARS-CoV-2 [3]): Neither compound showed any inhibition
